The text below walks through data of US20040101834A1, “Method of and kit for assessing responsiveness of cancer patients to antifolate chemotherapy” (priority 2001, published 2004).

Positions count from the first letter of the chain named. Where two headings read alike, the source gives them in different places. Marks after values point to notes of the source that are not given here. Bounds are passed on as bounds.

The target of experiment [1] is T1, RFC in GW70 cells (Homo sapiens, UniProt P41440, E45K/H27R/S46I/V29L).
T1 construct: endogenous in cells; host or cells: CEM-GW70 (GW1843U89-resistant CCRF-CEM subline)
T1 sequence (P41440 1-591 H27R/V29L/E45K/S46I): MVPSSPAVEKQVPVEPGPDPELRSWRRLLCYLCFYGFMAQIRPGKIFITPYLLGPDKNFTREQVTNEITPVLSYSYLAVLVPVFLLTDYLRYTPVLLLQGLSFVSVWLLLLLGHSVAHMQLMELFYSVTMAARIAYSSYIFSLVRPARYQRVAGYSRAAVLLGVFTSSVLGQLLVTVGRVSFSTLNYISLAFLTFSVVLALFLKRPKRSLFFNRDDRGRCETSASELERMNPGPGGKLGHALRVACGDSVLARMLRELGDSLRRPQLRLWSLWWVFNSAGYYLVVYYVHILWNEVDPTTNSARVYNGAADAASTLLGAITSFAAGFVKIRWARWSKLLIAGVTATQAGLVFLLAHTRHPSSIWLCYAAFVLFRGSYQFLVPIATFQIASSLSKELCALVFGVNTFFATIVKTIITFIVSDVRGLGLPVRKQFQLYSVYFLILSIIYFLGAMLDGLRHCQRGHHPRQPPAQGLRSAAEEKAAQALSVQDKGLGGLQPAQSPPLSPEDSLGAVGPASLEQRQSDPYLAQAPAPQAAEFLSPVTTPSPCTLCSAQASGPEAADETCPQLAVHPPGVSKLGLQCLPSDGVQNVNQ
In words: [3H]MTX and [3H]folic acid transport. It is filed as cell-based. Here is the method: (§1) At selected transport time intervals, ranging from 0.5-30 minutes, uptake was terminated by the addition of 10 ml ice-cold HBSS, after which centrifugation and cell wash with another 10 ml ice-cold HBSS were performed. The final cell pellet was then counted for radioactivity.

Experiment [2] deals with T2, RFC in GW70/LF cells (Homo sapiens, UniProt P41440, D88H/E45K/H27R/S46I/V29L).
T2 construct: a prominent overproduction of the native ˜80 kDa and truncated 43 kDa RFC proteins; endogenous in cells; host or cells: GW70/LF (GW70 cells adapted to low folate; 5-fold RFC gene amplification)
T2 sequence (P41440 1-591 H27R/V29L/E45K/S46I/D88H): T1 sequence (P41440 1-591 H27R/V29L/E45K/S46I) with D88H
In words: [3H]MTX and [3H]folic acid transport. The class given is cell-based. Conditions: GW70/LF compared to parental cells. On the procedure:
as §1

Experiment [3] relates to mouse MTX^rA leukemia transfectant harboring native RFC (Arg27) cDNA. As to the kind of experiment: Folate growth requirement in RFC transfectants. The class given is cell-based.
Experiment [4] has as its system mouse MTX^rA leukemia transfectant harboring His27 RFC cDNA. In words: Folate growth requirement in RFC transfectants. It is filed as cell-based.
In experiment [5] the test system is mouse MTX^rA leukemia transfectant harboring Arg27/His56 RFC cDNA. In words: Folate growth requirement in RFC transfectants. The class given is cell-based.
Experiment [6] relates to mouse MTX^rA leukemia transfectant harboring His27/His56 RFC cDNA. In words: Folate growth requirement in RFC transfectants. The class given is cell-based.
In experiment [7] the test system is parental human CEM leukemia cells (CEM/WT). As to the kind of experiment: Folate growth requirement. The class given is cell-based. Conditions: read-out: EC50, concentration necessary to support 50% of maximal growth, Table 6. An excerpt:
(§2) Table 6 below summarizes the antifolate growth inhibition and folate growth requirement in parental human CEM leukemia cells and their GW70 subline.

Experiment [8] relates to GW70 cells (GW1843U89-resistant CEM subline). In words: Folate growth requirement. The class given is cell-based, human.
Source text: as §2

Experiment [9] has as its system mouse MTX^rA leukemia transfectant harboring Glu45Lys RFC cDNA. As to the kind of experiment: Folate growth requirement in RFC transfectants. The class given is cell-based.
Experiment [10] relates to RFC in parental CEM cells (CEM/WT). As to the kind of experiment: [3H]MTX and [3H]folic acid transport. It is filed as cell-based, human. On the procedure: (Anti)folate transport measurements were performed essentially as previously described (Jansen et al., 1998). Briefly, cells were harvested in the mid-log phase, or collected from ALL patient donors, washed twice with Hepes-buffer saline solution (HBSS, pH 7.4) and concentrated to a density of 2×10^7 cells/ml in an anion-free MHS buffer (1 ml) containing 20 mM HEPES, 225 mM sucrose at pH 7.4 (adjusted with MgO), 37° C. […] For transport studies with [^3H]folic acid, HBSS buffer was supplemented with 5 μM trimetrexate in order to block folic acid reduction (Assaraf and Goldman, 1997). At selected transport time intervals, ranging from 0.5-30 minutes, uptake was terminated by the addition of 10 ml ice-cold HBSS, after which centrifugation and cell wash with another 10 ml ice-cold HBSS were performed. The final cell pellet was then counted for radioactivity.

The target in experiment [11] is T3, RFC in K562 cells (Homo sapiens, UniProt P41440).
T3 construct: The RFC in K562 cells contains both N- and O-linked glycosylated residues; host or cells: K562 cells
T3 sequence (P41440 1-591): T1 sequence (P41440 1-591 H27R/V29L/E45K/S46I) with R27H, L29V, K45E, I46S
Conditions: inhibition of glycosylation; Km unchanged; cited from earlier work.

For experiment [12], the target named is T4, human RFC (Homo sapiens, UniProt P41440).
T4 sequence (P41440 1-591): T1 sequence (P41440 1-591 H27R/V29L/E45K/S46I) with R27H, L29V, K45E, I46S
Conditions: Westerhof et al., 1995; read-out: Ki as transport substrate; cited from earlier work.

Experiment [13] has as its system parental human CEM leukemia cells (CEM/WT). As to the kind of experiment: Antifolate growth inhibition, 72 h drug exposure. Conditions: Homo sapiens. The class given is cell-based.
Experiment [14] deals with GW70/LF cells. As to the kind of experiment: Antifolate growth inhibition, 72 h drug exposure. The class given is cell-based. The conditions noted are these: Homo sapiens, 72 h. Here is the method: The GW70 subline was established by stepwise exposure of parental CEM cells to gradually increasing concentrations of the potent thymidylate synthase inhibitor, GW1843U89 in normal growth medium; this selection was initiated at 1.5 nM and terminated at 70 nM GW1843U89, the cells were therefore termed GW70. GW70/LF cells were established by gradual deprivation of folic acid from the growth medium; this was terminated at a concentration of 5 nM folic acid.

The test system of experiment [15] is GW70 cells (GW1843U89-resistant CEM subline). As to the kind of experiment: Antifolate growth inhibition, 72 h drug exposure. The conditions noted are these: for IC50: Homo sapiens, 72 h. It is filed as cell-based, human.
The mark [16] stands for this setting: Mus musculus, read-out: EC50, concentration necessary to support 50% of maximal growth of control cells.
[17] abbreviates: CEM/WT, influx, initial (3 min) uptake rates, Lineweaver-Burk.

The Km is the substrate concentration at which the rate is half of its maximum. With `Nc1nc2ncc(CNc3ccc(C(=O)N[C@@H](CCC(=O)O)C(=O)O)cc3)nc2c(=O)[nH]1` [Folic Acid, folic acid], the folic acid influx was 0.66±0.17 pmol/min/10^7 cells in [1] (GW70, folic acid reduction blocked by trimetrexate, n=8) and 0.19±0.05 pmol/min/10^7 cells in experiment [10] (parental CEM, folic acid reduction blocked by trimetrexate, n=8). Also, the “fold increase in influx and steady-state transport levels” value in [1] (GW70 compared to parental CEM cells) is listed as above 3 fold. The “fold decrease in the transport Km” value in experiment [1] (GW70 vs CEM) came to 10 fold. Moreover, the “fold increased affinity of RFC” value in experiment [1] (GW70 vs parental CEM) is recorded as 11 fold. Also, in experiment [2], the “fold increase in the transport Vmax” value was 15 fold. In addition, the “MTX IC50/folic acid EC50 ratio” value in [3] (Arg27 transfectant, in parentheses) is “(1)^d”; in [4] (in parentheses) it was “(0.99)”; in [5] (in parentheses), “(1.1))”; in [6] (in parentheses) it was “(2.82)”; in experiment [9] (Glu45Lys transfectant, in parentheses), “(4.5)”. The EC50 worked out at 14.4 ± 1.7 nM in experiment [3] (Mus musculus, read-out: EC50, concentration necessary to support 50% of maximal growth of control cells, Arg27 (native RFC) transfectant); 14.6 ± 0.5 nM in experiment [4] (setting [16]); 13.1 ± 2.3 nM in experiment [5] (setting [16]); 5.1 ± 1.2 nM in experiment [6] (setting [16]); 44.9 ± 3.7 nM in experiment [7]; 24.2 ± 7.1 nM in experiment [8] (Homo sapiens, read-out: EC50, concentration necessary to support 50% of maximal growth, Table 6, column GW (GW70)). Further, the EC50 in experiment [9] (setting [16]) came out at 3.2 ± 0.8 nM. Besides, the “fold decrease in the folic acid growth requirement” value in experiment [8] (GW70 vs parental CEM) amounted to 2 fold. Besides, the Km in experiment [10] (setting [17]) is 175 ± 39 µM. For the same molecule, the Vmax in experiment [10] (setting [17]) was 3.6 ± 1.5 pmol/min/10^7.
Consider tunicamycin, for which, in [11], the “reduction of transport (Vmax)” value is “approximately 30%”.
As a reminder, the Ki is the dissociation constant of the complex between target and ligand, obtained from inhibition or displacement. `Cc1nc2ccc3ccc(CNc4ccc5c(c4)CN([C@@H](CCC(=O)O)C(=O)O)C5=O)cc3c2c(=O)[nH]1` [GW1843]: in [12], the inhibition constant Ki was 800 nM. In addition, the “fold decreased affinity of RFC” value in experiment [1] (GW70 vs parental CEM) worked out at 6 fold. The IC50 in [13] (72 h, read-out: IC50, antifolate concentration that inhibits cell growth by 50%) was found to be 1.8 ± 0.22 nM; in experiment [13] (Table 10, CEM/WT, 72 h drug exposure, read-out: IC50), 2.4 ± 0.4 nM; in [14] (Table 10, GW70/LF) it was 2.5 ± 0.7 nM; in experiment [14] (Table 10, GW70/LF grown in the presence of 2.3 µM folic acid), 7.5 ± 1.5 nM; in experiment [15], 123 ± 48 nM; in experiment [15] (read-out: IC50, antifolate concentration that inhibits cell growth by 50%), 172 ± 34.5 nM. Besides, the “fold resistance / cross-resistance” value in experiment [15] (GW70 vs parental CEM cells) is reported as 100 fold.
